One assay addresses T1, human TLR8 (hTLR8) (Homo sapiens, UniProt Q9NR97).
T1 construct: expressed in transfected cells
T1 sequence (Q9NR97 27-1041): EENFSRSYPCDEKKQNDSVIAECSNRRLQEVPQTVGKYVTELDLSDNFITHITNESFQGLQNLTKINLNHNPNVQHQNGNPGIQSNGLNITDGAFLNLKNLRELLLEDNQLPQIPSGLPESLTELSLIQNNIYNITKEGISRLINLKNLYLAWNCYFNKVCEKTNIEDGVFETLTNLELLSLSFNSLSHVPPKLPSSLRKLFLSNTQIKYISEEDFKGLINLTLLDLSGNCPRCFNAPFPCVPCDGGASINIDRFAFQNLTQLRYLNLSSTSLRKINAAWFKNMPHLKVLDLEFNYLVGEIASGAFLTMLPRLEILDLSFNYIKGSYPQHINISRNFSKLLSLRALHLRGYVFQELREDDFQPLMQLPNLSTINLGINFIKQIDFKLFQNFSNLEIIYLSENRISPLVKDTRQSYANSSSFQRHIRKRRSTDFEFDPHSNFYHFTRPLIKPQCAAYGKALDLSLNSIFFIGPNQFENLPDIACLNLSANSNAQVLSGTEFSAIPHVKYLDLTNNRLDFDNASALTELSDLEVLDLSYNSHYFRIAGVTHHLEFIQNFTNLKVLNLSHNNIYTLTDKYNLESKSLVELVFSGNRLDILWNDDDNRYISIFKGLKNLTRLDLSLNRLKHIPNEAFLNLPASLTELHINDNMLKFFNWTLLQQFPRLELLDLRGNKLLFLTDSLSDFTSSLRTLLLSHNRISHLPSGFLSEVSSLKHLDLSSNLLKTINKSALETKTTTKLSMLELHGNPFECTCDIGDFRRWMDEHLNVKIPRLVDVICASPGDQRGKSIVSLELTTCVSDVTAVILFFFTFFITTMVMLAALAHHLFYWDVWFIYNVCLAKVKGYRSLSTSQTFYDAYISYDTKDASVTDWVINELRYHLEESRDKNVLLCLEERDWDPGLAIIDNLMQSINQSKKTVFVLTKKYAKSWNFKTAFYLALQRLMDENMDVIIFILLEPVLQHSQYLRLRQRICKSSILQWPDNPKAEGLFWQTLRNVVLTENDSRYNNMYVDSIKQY
In words: Human TLR8 agonist activity assay (measured in a similar manner). It is filed as cell-based. The conditions noted are these: HEK-Blue TLR cells, SEAP reporter, measured in a similar manner to TLR7; some values average of multiple measurements. On the procedure:
(§1) This procedure describes a method for assaying human TLR7 (hTLR7) and human TLR8 (hTLR8) agonist activity of the compounds disclosed herein.
HEK-Blue™ TLR7 cells were added to each well of a 384-well tissue-culture plate (15,000 cells per well) and incubated 16-18 h at 37° C., 5% CO2. Compounds (100 nL) were dispensed into wells containing the HEK-Blue™ TLR cells and the treated cells were incubated at 37° C., 5% CO2. After 18 h, ten microliters 5 of freshly prepared Quanti-Blue™ reagent (Invivogen) was added to each well and incubated for 30 min (37° C., […]). SLAP levels were measured using an Envision plate reader (OD=620 nm). […] Some of the reported activities were the average of multiple measurements.
TLR8 activity was measured in a similar manner.

The target in the next assay is T2, human TLR7 (hTLR7) (Homo sapiens, UniProt Q9NYK1).
T2 construct: host or cells: HEK-Blue TLR7 cells (engineered human embryonic kidney cells)
T2 sequence (Q9NYK1 27-1049): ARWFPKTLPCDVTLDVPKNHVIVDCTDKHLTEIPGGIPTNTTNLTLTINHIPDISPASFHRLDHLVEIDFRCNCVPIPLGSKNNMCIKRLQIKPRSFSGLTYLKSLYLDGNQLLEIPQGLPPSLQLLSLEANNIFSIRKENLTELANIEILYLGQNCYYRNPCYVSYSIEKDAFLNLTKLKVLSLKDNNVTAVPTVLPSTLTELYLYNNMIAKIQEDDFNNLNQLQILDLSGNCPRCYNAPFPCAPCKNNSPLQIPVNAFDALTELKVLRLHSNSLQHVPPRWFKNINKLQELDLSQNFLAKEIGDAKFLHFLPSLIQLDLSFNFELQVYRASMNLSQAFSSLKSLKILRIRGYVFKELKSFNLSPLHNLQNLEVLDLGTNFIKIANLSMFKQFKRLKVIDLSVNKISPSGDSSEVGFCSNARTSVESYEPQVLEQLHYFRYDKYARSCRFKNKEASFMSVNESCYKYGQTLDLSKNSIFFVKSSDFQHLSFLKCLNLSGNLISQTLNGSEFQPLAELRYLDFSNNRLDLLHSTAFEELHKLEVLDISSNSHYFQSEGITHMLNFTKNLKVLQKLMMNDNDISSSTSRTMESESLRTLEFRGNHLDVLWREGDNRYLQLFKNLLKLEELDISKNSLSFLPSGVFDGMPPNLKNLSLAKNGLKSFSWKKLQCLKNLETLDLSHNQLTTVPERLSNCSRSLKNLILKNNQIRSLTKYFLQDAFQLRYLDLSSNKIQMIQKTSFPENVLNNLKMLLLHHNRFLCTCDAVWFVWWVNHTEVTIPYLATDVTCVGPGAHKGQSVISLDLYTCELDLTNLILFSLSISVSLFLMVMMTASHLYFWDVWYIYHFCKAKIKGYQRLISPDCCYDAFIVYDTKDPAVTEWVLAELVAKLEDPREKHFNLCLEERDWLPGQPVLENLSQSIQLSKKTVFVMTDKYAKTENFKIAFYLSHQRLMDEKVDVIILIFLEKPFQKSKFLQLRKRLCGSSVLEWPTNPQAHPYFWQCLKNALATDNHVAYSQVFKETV
In words: Human TLR7 agonist activity assay (HEK-Blue TLR7 SEAP reporter). It is filed as cell-based. The conditions noted are these: HEK-Blue TLR7 cells, 18 h incubation, Quanti-Blue, OD 620 nm, some values average of multiple measurements. The protocol:
as §1
HEK-Blue™ TLR7 cells were added to each well of a 384-well tissue-culture plate (15,000 cells per well) and incubated 16-18 h at 37° C., 5% CO2. Compounds (100 nL) were dispensed into wells containing the HEK-Blue™ TLR cells and the treated cells were incubated at 37° C., 5% CO2. After 18 h, ten microliters 5 of freshly prepared Quanti-Blue™ reagent (Invivogen) was added to each well and incubated for 30 min (37° C., […]). SLAP levels were measured using an Envision plate reader (OD=620 nm). The half maximal effective concentration values (ECSO; compound concentration which induced a response halfway between the assay baseline and maximum) were calculated. Some of the reported activities were the average of multiple measurements.

The values that follow come from US20250282776A1, “Bicyclic TLR7 Agonists and Uses Thereof” (Bristol-Myers Squibb Company, priority 2024, published 2025).

Broadly, the EC50 is the concentration at which the effect is half-maximal. A high value points to weaker potency. `CCCCN(CCO)c1nc(N)nc2cn(Cc3cc(OC)c(C4CCN(CCOC)CC4)cc3OC)nc12` [Compound 106]: the EC50 turned out to be 2500 nM on human TLR8 (hTLR8) and 1140 nM at human TLR7 (hTLR7).

For the compound `CCCCN(CCO)c1nc(N)nc2cn(Cc3ccc(CN[C@H]4C[C@H](OC)C4)n4ncnc34)nc12` [Compound 174], the EC50 at human TLR8 (hTLR8) came to 1450 nM; on human TLR7 (hTLR7), 757 nM.

Take `CCCCN(CCO)c1nc(N)nc2cn(Cc3c(F)cc(CNCC4(CO)CC4)cc3OC)nc12` [Compound 92]: the EC50 is 2110 nM at human TLR8 (hTLR8) and 1330 nM on human TLR7 (hTLR7).

For `CCCCN(CCO)c1nc(N)nc2c(C)n(Cc3ccc(CNC4CCOCC4)cc3OC)nc12` [Compound 212, 2-((5-Amino-2-(2-methoxy-4-(((tetrahydro-2H-pyran-4-yl)amino)methyl)benzyl)-3-methyl-2H-pyrazolo[4,3-d]pyrimidin-7-yl) (butyl)amino) ethan-1-ol], the values for the EC50 on human TLR8 (hTLR8) and on human TLR7 (hTLR7) were 112 nM and 148 nM, respectively.

Consider `CCCCN(CCO)c1nc(N)nc2cn(Cc3ccc(CNC4CCCOC4)cc3OC)nc12` (stereo not drawn) [Compound 104], for which the concentration for a half-maximal effect (EC50) is 2160 nM at human TLR8 (hTLR8) and 1750 nM at human TLR7 (hTLR7).

On to `CCCCN(CCO)c1nc(N)nc2cn(Cc3ccc(CNC4CCC4)c4oc(C)nc34)nc12` [Compound 140, 2-((5-Amino-2-((7-((cyclobutylamino)methyl)-2-methylbenzo[d]oxazol-4-yl)methyl)-2H-pyrazolo-[4,3-d]pyrimidin-7-yl) (butyl)amino) ethan-1-ol], for which the figures for the 50% effective concentration (EC50) on human TLR8 (hTLR8) and on human TLR7 (hTLR7) were 674 nM and 993 nM, respectively.

In the case of `CCCCN(CCO)c1nc(N)nc2cn(Cc3ncc(CNC4CCC4)cc3OC)nc12` [Compound 182], the EC50 was determined as 1770 nM at human TLR8 (hTLR8) and 865 nM on human TLR7 (hTLR7).

For the compound `CCCCN(CCO)c1nc(N)nc2cn(Cc3ccc(CNC4CCOC(C)C4)cc3OC)nc12` (single isomer, unassigned) [Compound 121], the figures for the EC50 on human TLR8 (hTLR8) and on human TLR7 (hTLR7) were 564 nM and 1360 nM, respectively.

`CCCCN(c1nc(N)nc2cn(Cc3ccc(CN4CCCCC4)cc3OC)nc12)C(C)CO` (racemic) [Compound 49, 2-((5-amino-2-(2-methoxy-4-(piperidin-1-ylmethyl)benzyl)-2H-pyrazolo[4,3-d]pyrimidin-7-yl)(butyl)amino)propan-1-ol]: the half-maximal effective concentration (EC50) is 682 nM at human TLR8 (hTLR8) and 385 nM at human TLR7 (hTLR7).

On to `CCCCN(CCO)c1nc(N)nc2cn(Cc3ccc(CN4CC(CCO)C4)c4cccnc34)nc12` [Compound 62], for which the EC50 came to 675 nM at human TLR8 (hTLR8) and 1310 nM at human TLR7 (hTLR7).

`CCCCN(CCO)c1nc(N)nc2cn(Cc3ccc(CNC4CCCC4)c4cccnc34)nc12` [Compound 61]: the EC50 at human TLR8 (hTLR8) was determined as 952 nM; on human TLR7 (hTLR7), 1500 nM.

Consider `CCCCN(CCO)c1nc(N)nc2cn(Cc3ccc(CN[C@@H]4CCCN(C(=O)OC)C4)c4cccnc34)nc12` [Compound 185, Methyl (R)-3-(((8-((5-amino-7-(butyl(2-hydroxyethyl)amino)-2H-pyrazolo[4,3-d]pyrimidin-2-yl)methyl)quinolin-5-yl)methyl)amino) piperidine-1-carboxylate], for which the EC50 on human TLR8 (hTLR8) turned out to be 508 nM; at human TLR7 (hTLR7), 499 nM.

`CCCCN(c1nc(N)nc2cn(Cc3c(F)cc(C4CCN(C5CC6(COC6)C5)CC4)cc3OC)nc12)C(C)CO` (stereo not drawn) [Compound 179]: the concentration giving a half-maximal response (EC50) on human TLR8 (hTLR8) turned out to be 213 nM; on human TLR7 (hTLR7), 121 nM.

`CCCCN(CCO)c1nc(N)nc2cn(Cc3ccc(CN[C@H]4CC[C@H](O)CC4)c4cccnc34)nc12` [Compound 169]: the concentration for a half-maximal effect (EC50) at human TLR8 (hTLR8) is 628 nM; on human TLR7 (hTLR7), 1090 nM.

Turning to `CCCCN(CCO)c1nc(N)nc2cn(Cc3ccc(CNC4CCC4)cc3C(F)F)nc12` [Compound 98], the EC50 is 1150 nM at human TLR8 (hTLR8) and 1560 nM at human TLR7 (hTLR7).

With `CCCCN(CCO)c1nc(N)nc2cn(Cc3ccc(CNC4CCOC4(C)C)cc3OC)nc12` (stereo not drawn) [Compound 153], the EC50 at human TLR8 (hTLR8) worked out at 306 nM; at human TLR7 (hTLR7), 615 nM.

Consider `CCCCN(c1nc(N)nc2cn(Cc3ccc(CN4CCCCC4)cc3OC)nc12)C(C)CO` (single isomer, unassigned) [Compound 49-2, 2-((5-amino-2-(2-methoxy-4-(piperidin-1-ylmethyl)benzyl)-2H-pyrazolo[4,3-d]pyrimidin-7-yl)(butyl)amino)propan-1-ol], for which the EC50 on human TLR8 (hTLR8) came out at 682 nM; at human TLR7 (hTLR7) it was 385 nM.

With `CCCCN(CCO)c1nc(N)nc2cn(Cc3ccc(CNCCOC)cc3OC)nc12` [Compound 10], the 50% effective concentration (EC50) at human TLR8 (hTLR8) was 1450 nM; at human TLR7 (hTLR7), 1330 nM.

`CCCCN(c1nc(N)nc2cn(Cc3ccc(CN4CCCCC4)cc3OC)nc12)C(C)CO` (single isomer, unassigned) [Compound 49-1, 2-((5-amino-2-(2-methoxy-4-(piperidin-1-ylmethyl)benzyl)-2H-pyrazolo[4,3-d]pyrimidin-7-yl)(butyl)amino)propan-1-ol]: the values for the EC50 on human TLR8 (hTLR8) and at human TLR7 (hTLR7) were 949 nM and 374 nM, respectively.

`CCCCN(CCO)c1nc(N)nc2cn(Cc3ccc(CNC4CCOC(C)C4)cc3OC)nc12` (stereo not drawn) [Compound 125]: the figures for the EC50 at human TLR8 (hTLR8) and at human TLR7 (hTLR7) were 2030 nM and 2250 nM, respectively.

On to `CCCCN(CCO)c1nc(N)nc2cn(Cc3c(F)cc(CN4CC(OC)C4)cc3OC)nc12` [Compound 84], for which the concentration giving a half-maximal response (EC50) on human TLR8 (hTLR8) stood at 497 nM; at human TLR7 (hTLR7), 199 nM.

`COc1cc(CN[C@H]2C[C@H](OC)C2)ccc1Cn1cc2nc(N)nc(N(CCO)CCCCF)c2n1` [Compound 170]: the values for the half-maximal effective concentration (EC50) on human TLR8 (hTLR8) and on human TLR7 (hTLR7) were 2500 nM and 1800 nM, respectively.

`CCCCN(CCO)c1nc(N)nc2cn(Cc3c(OC)cc(CNC(C)C)cc3OC)nc12` [Compound 146]: the results for the EC50 at human TLR8 (hTLR8) and at human TLR7 (hTLR7) were 1770 nM and 1820 nM, respectively.

As to `CCCCN(CCO)c1nc(N)nc2cn(Cc3ccc(CN[C@@H]4CCCN(C(=O)CN)C4)c4cccnc34)nc12` [Compound 198], the concentration for a half-maximal effect (EC50) at human TLR8 (hTLR8) was 2270 nM; on human TLR7 (hTLR7) it was 1310 nM.
